Measurements from US20250145589A1, “PYRIDINE DERIVATIVE AND USE THEREOF” (SICHUAN HUIYU PHARMACEUTICAL CO., LTD., priority 2021, published 2025).

Experiments:
[1] = biological target: KRAS^G12C-SOS1 (Homo sapiens (Human), UniProt P01116, G12C); test: HTRF KRAS G12C/SOS1 binding assay; conditions: Table 5
Procedure, shortened: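 Compound was serially diluted five-fold over eight points, with a 2 mM DMSO stock. After anti-tag-Tb3+ and anti-tag-XL665 were added, plates were incubated 3 h at 4 °C and read by HTRF (ex 337 nm, em 620/665 nm ratio). IC50 values come from four-parameter variable-slope fits.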

[2] = tested on: MIA PaCa-2 cells (KRAS G12C mutant); test: MIA PaCa-2 cell anti-proliferation (CellTiter-Glo); format: cell-based; conditions: Homo sapiens, 72 h; MIA Paca-2 cells, 3 days, Table 7; read-out: MIA PaCa-2 (IC50)
Procedure, shortened: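 Viable-cell luminescence (CellTiter-Glo, ≥30 min at 25 °C) measured after a 3-day, 37 °C exposure to compounds at 9 points, 4-fold spaced, in DMEM containing 10% FBS plus 2.5% horse serum. IC50 derived versus no-inhibitor wells.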

[3] = tested on: NCI-H358-AMGR drug-resistant cell line; test: NCI-H358-AMGR drug-resistant cell proliferation inhibitory activity test; format: cell-based; conditions: 72 h; NCI-H358-AMGR drug-resistant cells, 3 days incubation, CellTiter-Glo
Procedure, shortened: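 Luminescent CellTiter-Glo read-out after 3-day, 37° C compound exposure (8 points, 5-fold series) of AMG510-resistant NCI-H358 cells plated at 4×10^3 per well.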

KRAS^G12C-SOS1, sequence (P01116-2 other isoform, or with tags, fused parts or gaps G12C): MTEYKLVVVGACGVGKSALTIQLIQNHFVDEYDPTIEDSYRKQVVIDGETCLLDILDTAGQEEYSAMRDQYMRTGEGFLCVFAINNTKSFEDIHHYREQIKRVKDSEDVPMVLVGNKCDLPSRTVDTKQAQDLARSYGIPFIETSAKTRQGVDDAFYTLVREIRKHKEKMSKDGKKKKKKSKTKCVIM

| Structure (SMILES) | IC50 [1] [nM] | IC50 [2] [nM] | IC50 [3] [nM] |
| --- | --- | --- | --- |
| CCCC(=O)/C=C/C(=O)N1CCN(c2ncnc3ccc(-c4cnc(OC)c(NS(=O)(=O)c5ccc(F)cc5F)c4)cc23)CC1 [Example 17, (E)-2,4-difluoro-N-(2-methoxy-5-(4-(4-(4-oxohept-2-enoyl)piperazin-1-yl)quinazolin-6-yl)pyridin-3-yl)benzenesulfonamide] | 313 | 87.9 | 53.3 |
| COc1ncc(-c2ccc3ncnc(N4CCN(C(=O)/C=C/C(C)=O)CC4)c3c2)cc1NS(=O)(=O)c1sc(C)nc1C [Example 160, (E)-N-(2-methoxy-5-(4-(4-(4-oxopent-2-enoyl)piperazin-1-yl)quinazolin-6-yl)pyridin-3-yl)-2,4-dimethylthiazole-5-sulfonamide] | 169 | 48.4 | 69.5 |
| COc1ncc(-c2ccc3ncnc(N4CCC5(CC4)CN(C(=O)/C=C/C(C)=O)C5)c3c2)cc1NS(=O)(=O)c1ccc(F)cc1 [Example 161, (E)-4-fluoro-N-(2-methoxy-5-(4-(2-(4-oxopent-2-enoyl)-2,7-diazaspiro[3.5]nonan-7-yl)quinazolin-6-yl)pyridin-3-yl)benzenesulfonamide] | 284 | 67.8 | 145 |
| COc1ncc(-c2ccc3ncnc(N4CC5CCC(C4)N5C(=O)/C=C/C(C)=O)c3c2)cc1NS(=O)(=O)c1c(F)cc(F)cc1F [Example 155] | 462 | 77.6 | 164 |
| COc1ncc(-c2ccc3ncnc(N4CCN(C(=O)/C=C/C(C)=O)CC4)c3c2)cc1NS(=O)(=O)c1c(F)cccc1F [Example 22, (E)-2,6-difluoro-N-(2-methoxy-5-(4-(4-(4-oxopent-2-enoyl)piperazin-1-yl)quinazolin-6-yl)pyridin-3-yl)benzenesulfonamide] | 149 | 92.1 | 47.9 |
| COc1ncc(-c2ccc3ncnc(N4CCC5(CC4)CN(C(=O)/C=C/C(C)=O)C5)c3c2)cc1NS(=O)(=O)c1c(F)cc(F)cc1F [Example 101, (E)-2,4,6-trifluoro-N-(2-methoxy-5-(4-(2-(4-oxopent-2-enoyl)-2,7-diazaspiro[3.5]nonan-7-yl)quinazolin-6-yl)pyridin-3-yl)benzenesulfonamide] | 198 | 11.6 | 28.3 |
| COc1ncc(-c2ccc3ncnc(C4CCN(C(=O)/C=C/C(C)=O)CC4)c3n2)cc1NS(=O)(=O)c1ccc(F)cc1F [Example 234, (E)-2,4-difluoro-N-(2-methoxy-5-(4-(1-(4-oxopent-2-enoyl)piperidin-4-yl)pyrido[3,2-d]pyrimidin-6-yl)pyridin-3-yl)benzenesulfonamide] | 292 | 14.9 | 58.2 |
| COc1ncc(-c2ccc3ncnc(N4C5CCC4CN(C(=O)/C=C/C(C)=O)C5)c3c2)cc1NS(=O)(=O)c1ccc(F)cc1F [Example 144, 2,4-difluoro-N-(2-methoxy-5-(4-(3-((E)-4-oxopent-2-enoyl)-3,8-diazabicyclo[3.2.1]octan-8-yl)quinazolin-6-yl)pyridin-3-yl)benzenesulfonamide] | 390 | 58.7 | 43.1 |
| COc1ncc(-c2ccc3ncnc(C4=CCN(C(=O)/C=C/C(C)=O)CC4)c3c2)cc1NS(=O)(=O)c1ccc(F)cc1F [Example 198, (E)-2,4-difluoro-N-(2-methoxy-5-(4-(1-(4-oxopent-2-enoyl)-1,2,3,6-tetrahydropyridin-4-yl)quinazolin-6-yl)pyridin-3-yl)benzenesulfonamide] | 133 | 8.7 | 22.1 |
| COc1ncc(-c2ccc3ncnc(N4CCN(C(=O)/C=C/C(C)=O)C[C@@H]4C)c3c2)cc1NS(=O)(=O)c1c(F)cc(F)cc1F [Example 154, (S,E)-2,4,6-trifluoro-N-(2-methoxy-5-(4-(2-methyl-4-(4-oxopent-2-enoyl)piperazin-1-yl)quinazolin-6-yl)pyridin-3-yl)benzenesulfonamide] | 183 | 28.8 | 61.6 |
| COc1ncc(-c2ccc3ncnc(N4CCN(C(=O)/C=C/C(C)=O)CC4)c3c2)cc1NS(=O)(=O)c1ccc(F)cc1Cl [Example 169, (E)-2-chloro-4-fluoro-N-(2-methoxy-5-(4-(4-(4-oxopent-2-enoyl)piperazin-1-yl)quinazolin-6-yl)pyridin-3-yl)benzenesulfonamide] | 249 | 31.7 | 36.2 |
| COc1ncc(-c2ccc3ncnc(N4CCN(C(=O)/C=C/C(C)=O)[C@H](C)C4)c3n2)cc1NS(=O)(=O)c1ccccc1F [Example 228, (R,E)-2-fluoro-N-(2-methoxy-5-(4-(3-methyl-4-(4-oxopent-2-enoyl)piperazin-1-yl)pyrido[3,2-d]pyrimidin-6-yl)pyridin-3-yl)benzene-sulfonamide] | 294 | 34 | 40.3 |
| COc1ncc(-c2ccc3ncnc(N4CCN(C(=O)/C=C/C(C)=O)CC4)c3c2)cc1NS(=O)(=O)c1ncc(Cl)s1 [Example 165, (E)-5-chloro-N-(2-methoxy-5-(4-(4-(4-oxopent-2-enoyl)piperazin-1-yl)quinazolin-6-yl)pyridin-3-yl)thiazole-2-sulfonamide] | 362 | 250 | 171 |
| COc1ncc(-c2ccc3ncnc(N4CCN(C(=O)/C=C/C(C)=O)C[C@@H]4C)c3c2)cc1NS(=O)(=O)c1sc(C)nc1C [Example 173, (S,E)-N-(2-methoxy-5-(4-(2-methyl-4-(4-oxopent-2-enoyl)piperazin-1-yl)quinazolin-6-yl)pyridin-3-yl)-2,4-dimethyl-thiazole-5-sulfonamide] | 199 | 9.2 | 54.7 |
| COc1ncc(-c2ccc3ncnc(N4CCC5(CC4)CN(C(=O)/C=C/C(C)=O)C5)c3c2)cc1NS(=O)(=O)c1ccc(F)cc1F [Example 20, (E)-2,4-difluoro-N-(2-methoxy-5-(4-(2-(4-oxopent-2-enoyl)-2,7-diazaspiro[3.5]nonan-7-yl)quinazolin-6-yl)pyridin-3-yl)benzenesulfonamide] | 239 | 64.1 | 48.7 |
| COc1ncc(-c2ccc3ncnc(N4CCN(C(=O)/C=C/C(C)=O)CC4)c3c2)cc1NS(=O)(=O)c1ccncc1C [Example 172, (E)-N-(2-methoxy-5-(4-(4-(4-oxopent-2-enoyl)piperazin-1-yl)quinazolin-6-yl)pyridin-3-yl)-3-methyl-pyridine-4-sulfonamide] | 622 | 171 | 451 |
| COc1ncc(-c2ccc3ncnc(N4CCN(C(=O)/C=C/C(C)=O)C[C@@H]4C)c3c2)cc1NS(=O)(=O)c1ccccc1F [Example 152, (S,E)-2-fluoro-N-(2-methoxy-5-(4-(2-methyl-4-(4-oxopent-2-enoyl)piperazin-1-yl)quinazolin-6-yl)pyridin-3-yl)benzenesulfonamide] | 175 | 68.8 | 62.1 |
| COc1ncc(-c2ccc3ncnc(N4CC5CCC(C4)N5C(=O)/C=C/C(C)=O)c3c2)cc1NS(=O)(=O)c1c(F)cccc1F [Example 145, 2,6-difluoro-N-(2-methoxy-5-(4-(8-((E)-4-oxopent-2-enoyl)-3,8-diazabicyclo[3.2.1]octan-3-yl)quinazolin-6-yl)pyridin-3-yl)benzenesulfonamide] | 200 | 77.2 | 223 |
| COc1ncc(-c2ccc3ncnc(N4CCN(C(=O)/C=C/C(C)=O)CC4)c3n2)cc1NS(=O)(=O)c1c(F)cccc1Cl [Example 225, (E)-2-chloro-6-fluoro-N-(2-methoxy-5-(4-(4-(4-oxopent-2-enoyl)piperazin-1-yl)pyrido[3,2-d]pyrimidin-6-yl)pyridin-3-yl) benzene-sulfonamide] | 110 | 15.6 | 34.9 |
| COc1ncc(-c2ccc3ncnc(N4CCN(C(=O)/C=C/C(C)=O)CC4)c3n2)cc1NS(=O)(=O)c1c(F)cc(F)cc1F [Example 219, (E)-2,4-trifluoro-N-(2-methoxy-5-(4-(4-(4-oxopent-2-enoyl)piperazin-1-yl)pyrido[3,2-d]pyrimidin-6-yl)pyridin-3-yl) benzene-sulfonamide] | 152 | 5.8 | 15.9 |
| COc1ncc(-c2ccc3ncnc(N4CCN(C(=O)/C=C/C(C)=O)CC4)c3c2)cc1NS(=O)(=O)c1c(F)cncc1F [Example 102, (E)-3,5-difluoro-N-(2-methoxy-5-(4-(4-(4-oxopent-2-enoyl)piperazin-1-yl)quinazolin-6-yl)pyridin-3-yl)pyridine-4-sulfonamide] | 141 | 142 | 516 |
